“Also recorded” adds a separate entry of the source. Read-outs that look alike come from different tables or passages of the source.
Assays:
[1] = molecular target: T1, dopamine uptake by striatal synaptosomes (Mus musculus, UniProt Q61327); experiment: Dopamine reuptake into striatal synaptosomes; assay type: biochemical
T1 construct: C57B6 mice (aged 6–8 weeks) were decapitated and striatum were dissected from both sides of the brain; from tissue; host or cells: striatal synaptosomes of C57B6 mice
Method: All animal work was conducted in adherence to OSU IACUC approved protocols and guidelines for animal welfare. C57B6 mice (aged 6–8 weeks) were decapitated and striatum were dissected from both sides of the brain and stored on ice. The tissues were placed in ice-cold Krebs'-Ringer's solution buffer (KRB) (in mM: 125 NaCl, 1.2 KCl, 1.2 MgSO4, 1.2 CaCl2, 22 NaHCO3, 1 NaH2PO4, and 10 glucose, adjusted to pH 7.4) with an additional 0.32 M sucrose. Tissue samples were homogenized by using a glass homogenizing tube and with a Teflon-coated pestle. The samples were centrifuged for 10 min at 1,000xg. Supernatant was collected and the debris pellet was discarded. Supernatant was centrifuged for 15 min at 16,000x g. […] Amounts of [^3H]-labeled dopamine accumulated were quantitated by liquid-scintillation counting. All experiments were performed in triplicates. Synaptosomes with the highest dose of inhibitor were used as background controls and radioactivity associated with these wells were subtracted from the total scintillation counts of all wells.
The IC50 values were determined by nonlinear regression analyses of experimental data using GraphPad Prism 3.0 (San Diego, CA). IC50 values presented are averages ± standard error of means (SEM) calculated from 3 independent uptake experiments or recordings of 4 different DRG neurons. Statistical analyses for the difference between the IC50 values of the two drugs were performed by Student's paired t-test using SPSS 17.0 (Chicago, IL).

mouse DAT = mouse DAT (Mus musculus, UniProt Q61327); experiment: Dopamine uptake into HeLa cells transiently transfected with mDAT; assay type: cell-based
mouse NET = mouse NET (Mus musculus, UniProt O55192); experiment: Norepinephrine uptake into HeLa cells transiently transfected with mNET; assay type: cell-based
mouse SERT = mouse SERT (Mus musculus, UniProt Q60857); experiment: Serotonin uptake into HeLa cells transiently transfected with mSERT; assay type: cell-based
DRG neuron Na+ channels = experiment: Whole-cell voltage clamp recording of sodium channel currents in dorsal root ganglion neurons; assay type: cell-based, mouse; conditions: for IC50: isolated mouse DRG neurons, whole-cell patch clamp, held at -70 mV, read-out: IC50, inhibition of DRG neuron Na+ channels
Method: Dorsal root ganglion (DRG) neurons (T1–T10) from adult male C57B6 mice (aged 6–8 weeks) were isolated as per Malin et al. Briefly, ganglia were dissected under stereo microscope and washed in Ca^2+/Mg^2+-free Hank's Buffered Salt Solution (HBSS). DRGs were digested enzymatically, first with papain and then collagenase II and dispase II, each for 10 min at 37°C. Digested DRGs were then triturated in culture media (F-12 supplemented with 10% FBS and 5 mg/ml penicillin/streptomycin) by a fire-polished Pasteur pipette until solution becomes cloudy. Isolated DRG neurons were plated on poly-ornithine coated glass cover slips and maintained in a 37°C, 5% CO2 incubator. Individual DRG neurons were recorded after overnight culture.
Plated coverslips were centered in a perfusion chamber filled with extracellular solution (ECS) containing (in mM): 140 NaCl, 5 KCl, 2 CaCl2, 1 MgCl2, 10 glucose, 10 HEPES, pH 7.4. Cocaine and CM were dissolved in ECS and delivered via a pressure-driven perfusion system (SmartSquirt 8, AutoMate Scientific) with the tip positioned so the DRG neuron being recorded was fully within the direct stream of perfusate. Recording pipettes were pulled from micropipette glass (World Precision Instruments, Sarasota FL) to 2–4 MΩ when filled with an intracellular solution containing (in mM): 140 […], 1 CaCl2, 2 MgCl2, 11 EGTA, 10 HEPES, 2 Mg2ATP, pH 7.2). Whole-cell recordings were made using an EPC10 amplifier and the PatchMaster 2.2.0 software (both from HEKA Electronik, Germany). As soon as the whole-cell configuration was established, fast and slow capacitances were cancelled and the holding potential (Vh) was set to -70 mV. A step protocol ([…] from −70 mV to 10 mV with 5 mV increment for each step) was applied to determine the testing voltage (Vt) that generated the maximal inward current in the following experiment. […] Only one cell per cover slip was recorded to avoid possible drug contamination of other cells. […]
A range of drug concentrations, starting from low to high, were tested for each DRG neuron. The sodium channel currents were recorded 30 s before the drug application, during the 30 s drug application, and 30–60 s after drug washout by perfusion with ECS. For each set of tests, current amplitude was measured by subtracting the baseline value from the peak current. […] The currents measured after the drug washout were used to confirm the complete recovery before testing the next drug concentration.
The IC50 values were determined by nonlinear regression analyses of experimental data using GraphPad Prism 3.0 (San Diego, CA). IC50 values presented are averages ± standard error of means (SEM) calculated from 3 independent uptake experiments or recordings of 4 different DRG neurons. […]

sodium channels = test system: sodium channels; design: method as in PMID 16406254; conditions: cited from earlier work

T1 sequence (Q61327 whole entry): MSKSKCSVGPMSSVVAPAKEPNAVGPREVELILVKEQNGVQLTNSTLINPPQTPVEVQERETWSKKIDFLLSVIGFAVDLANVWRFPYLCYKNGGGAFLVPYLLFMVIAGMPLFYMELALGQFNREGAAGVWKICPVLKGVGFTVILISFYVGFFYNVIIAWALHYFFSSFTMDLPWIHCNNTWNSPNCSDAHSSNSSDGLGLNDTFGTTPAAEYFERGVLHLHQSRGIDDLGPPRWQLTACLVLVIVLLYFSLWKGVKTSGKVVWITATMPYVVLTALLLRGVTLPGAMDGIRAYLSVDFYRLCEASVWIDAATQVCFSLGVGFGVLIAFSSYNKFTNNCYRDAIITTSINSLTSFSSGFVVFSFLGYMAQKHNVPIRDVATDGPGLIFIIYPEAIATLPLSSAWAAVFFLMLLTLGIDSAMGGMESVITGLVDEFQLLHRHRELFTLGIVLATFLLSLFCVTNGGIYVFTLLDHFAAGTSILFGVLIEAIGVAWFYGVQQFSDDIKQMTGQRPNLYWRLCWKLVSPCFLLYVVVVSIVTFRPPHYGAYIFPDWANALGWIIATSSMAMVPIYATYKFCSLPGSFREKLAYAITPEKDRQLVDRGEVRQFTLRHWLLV
mouse DAT, sequence (Q61327 whole entry): as above
mouse SERT, sequence (Q60857 whole entry): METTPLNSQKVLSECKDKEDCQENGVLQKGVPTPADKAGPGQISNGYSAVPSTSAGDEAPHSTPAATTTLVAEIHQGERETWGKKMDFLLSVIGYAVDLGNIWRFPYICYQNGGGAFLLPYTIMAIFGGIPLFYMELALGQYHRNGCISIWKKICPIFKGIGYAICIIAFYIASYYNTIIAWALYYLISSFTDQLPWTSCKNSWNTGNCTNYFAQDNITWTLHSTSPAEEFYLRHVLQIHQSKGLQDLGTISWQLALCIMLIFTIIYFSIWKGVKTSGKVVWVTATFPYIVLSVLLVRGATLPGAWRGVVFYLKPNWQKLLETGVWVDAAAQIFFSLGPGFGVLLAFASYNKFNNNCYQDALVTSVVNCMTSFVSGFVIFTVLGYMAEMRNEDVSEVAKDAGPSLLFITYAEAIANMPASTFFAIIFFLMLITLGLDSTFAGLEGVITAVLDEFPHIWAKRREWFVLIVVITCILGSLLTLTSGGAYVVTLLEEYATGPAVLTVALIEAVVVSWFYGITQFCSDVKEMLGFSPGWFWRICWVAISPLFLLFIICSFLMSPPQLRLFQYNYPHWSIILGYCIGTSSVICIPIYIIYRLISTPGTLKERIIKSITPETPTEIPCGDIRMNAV
mouse NET, sequence (O55192 whole entry): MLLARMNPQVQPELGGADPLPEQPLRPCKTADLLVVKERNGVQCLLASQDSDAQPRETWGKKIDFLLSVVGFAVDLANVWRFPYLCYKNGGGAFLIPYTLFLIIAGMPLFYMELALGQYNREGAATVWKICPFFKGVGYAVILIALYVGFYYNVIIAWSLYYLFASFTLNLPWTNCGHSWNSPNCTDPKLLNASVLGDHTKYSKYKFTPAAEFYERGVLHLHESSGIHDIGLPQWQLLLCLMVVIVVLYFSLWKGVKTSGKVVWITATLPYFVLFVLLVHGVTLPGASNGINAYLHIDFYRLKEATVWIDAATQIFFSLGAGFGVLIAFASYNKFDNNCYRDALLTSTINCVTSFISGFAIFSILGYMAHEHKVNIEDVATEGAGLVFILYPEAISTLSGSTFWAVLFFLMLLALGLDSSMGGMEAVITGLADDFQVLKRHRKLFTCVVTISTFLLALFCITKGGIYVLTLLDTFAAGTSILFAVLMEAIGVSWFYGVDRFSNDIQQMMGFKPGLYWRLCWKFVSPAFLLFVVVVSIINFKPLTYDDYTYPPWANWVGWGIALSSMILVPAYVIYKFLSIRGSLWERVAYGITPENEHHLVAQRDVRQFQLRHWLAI

In the case of COC(=O)[C@H]1[C@@H](OC(=O)c2ccccc2)C[C@@H]2CC[C@H]1[N+]2(C)C.[I-] [Cocaine Methiodide, Cocaine methiodide], the “ratio of IC50 values, cocaine methiodide / cocaine, striatal synaptosomes” value ([1]; dopamine uptake, mouse striatal synaptosomes) is reported as 33 fold, the IC50 ([1]; mouse striatum synaptosomes, 60 nM [3H]dopamine, 100 µM desipramine, mean ± SEM, 3 experiments, listed as CM, read-out: IC50, inhibition of dopamine uptake by striatal synaptosomes) is reported as 11.7 ± 5.1 µM and the IC50 ([1]; mouse striatum synaptosomes, 60 nM [3H]dopamine, 100 µM desipramine, mean ± SEM, 3 experiments, read-out: IC50, inhibition of dopamine uptake by striatal synaptosomes) is reported as 11.5 ± 5.1 µM. For the same compound, the “ratio of IC50 values, cocaine methiodide / cocaine, mDAT” value (mouse DAT; transfected HeLa cells) was 184 fold, the IC50 (mouse DAT; transfected HeLa cells, 60 nM [3H] substrate, mean ± SEM, 3 experiments, read-out: IC50, inhibition of dopamine uptake by mDAT) was 83.2 ± 2.1 µM and the “ratio of IC50 values, cocaine methiodide / cocaine, mNET” value (mouse NET; transfected HeLa cells) was 31 fold. For the same compound, the IC50 (mouse NET; transfected HeLa cells, 60 nM [3H] substrate, mean ± SEM, 3 experiments, read-out: IC50, inhibition of norepinephrine uptake by mNET) was 20.9 ± 3.1 µM, the “ratio of IC50 values, cocaine methiodide / cocaine, mSERT” value (mouse SERT; transfected HeLa cells) was 123 fold and the IC50 (mouse SERT; transfected HeLa cells, 60 nM [3H] substrate, mean ± SEM, 3 experiments, read-out: IC50, inhibition of serotonin uptake by mSERT) was 84.3 ± 4.8 µM. For the same compound, the “effect on sodium channel currents (peak inward current) in DRG neurons” value (DRG neuron Na+ channels; concentrations up to 3 mM, the highest tested, n = 4 cells, p>0.05, listed as CM) was “very little inhibition; also recorded: no observable effect; also recorded: little observable effect; also recorded: does not inhibit”.
In the case of COC(=O)[C@H]1[C@@H](OC(=O)c2ccccc2)C[C@@H]2CC[C@H]1N2C [Cocaine], the IC50 [1] is given as 0.35 ± 0.11 µM, the “potency for blocking sodium channels” value (sodium channels) is given as ≥ 50 µM and the IC50 (mouse DAT) is given as 0.45 ± 0.11 µM. For the same compound, the IC50 (mouse NET) was 0.67 ± 0.09 µM, the IC50 (mouse SERT) was 0.68 ± 0.39 µM and the “sodium channel IC50 relative to those for the monoamine transporters” value (DRG neuron Na+ channels; cocaine, DRG Na+ channels vs DAT, NET, SERT) was “roughly 100 fold”. For the same compound, the IC50 (DRG neuron Na+ channels; n = 4 cells, listed as cocaine) was 85 µM and the IC50 (DRG neuron Na+ channels; n = 4 cells) was 84.8 ± 5.9 µM.
